What was measured:
[1] = target: Endonuclease 8-like 1 (Homo sapiens) (UniProt Q96FI4); conditions: Hit No;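 also: fluorescence at 594 nm from quenched duplex DNA oligonucleotides released by NEIL1 cleavage and strand separation, reported as reduction of this enzyme activity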
Description: Inhibition of NEIL1 by quantifying inhibition of NEIL1-mediated cleavage and dissociation of quenched duplex DNA oligonucleotides, measured as fluorescence at 594 nm.

[2] = target: T1, Endonuclease 8-like 2 (Homo sapiens) (UniProt Q969S2); conditions: Hit No;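 also: fluorescence at 594 nm reports NEIL2 cutting and release of a quenched double-stranded DNA oligo substrate, reduced signal read as inhibition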
T1 sequence (whole entry): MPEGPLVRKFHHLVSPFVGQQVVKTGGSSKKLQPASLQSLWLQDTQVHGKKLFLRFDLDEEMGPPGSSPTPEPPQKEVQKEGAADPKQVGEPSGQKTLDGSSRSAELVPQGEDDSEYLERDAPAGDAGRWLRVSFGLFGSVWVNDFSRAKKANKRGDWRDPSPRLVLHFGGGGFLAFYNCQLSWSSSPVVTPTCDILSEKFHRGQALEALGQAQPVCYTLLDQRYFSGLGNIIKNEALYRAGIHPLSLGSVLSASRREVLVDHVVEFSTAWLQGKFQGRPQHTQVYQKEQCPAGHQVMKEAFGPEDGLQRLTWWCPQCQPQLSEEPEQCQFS
Description: Inhibition of NEIL2 by quantifying inhibition of NEIL2-mediated cleavage and dissociation of quenched duplex DNA oligonucleotides, measured as fluorescence at 594 nm.

[3] = target: N-glycosylase/DNA lyase (Homo sapiens) (UniProt O15527);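 also: OGG1 cleavage of a quenched duplex DNA oligonucleotide, coupled to APE1 for strand incision, read as fluorescence at 594 nm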
Description: Inhibition of OGG1 by quantifying inhibition of OGG1-mediated cleavage and dissociation of quenched duplex DNA oligonucleotides, measured as fluorescence at 594 nm. To generate a functional strand incision and increase turn-over this assay is coupled to APE1.

[4] = target: DNA-3-methyladenine glycosylase (Homo sapiens) (UniProt P29372); conditions: Compound Concentration 10.0 uM, Hit No;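 also: enzyme assay where MPG cuts a quenched duplex DNA oligonucleotide probe, paired with APE1 for strand incision and turnover, read as fluorescence at 594 nm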
Description: Inhibition of MPG by quantifying inhibition of MPG-mediated cleavage and dissociation of quenched duplex DNA oligonucleotides, measured as fluorescence at 594 nm. To generate a functional strand incision and increase turn-over this assay is coupled to APE1.

[5] = target: G/T mismatch-specific thymine DNA glycosylase (Homo sapiens) (UniProt Q13569); conditions: Hit No;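 also: human TDG cleavage of quenched duplex DNA oligonucleotides coupled to APE1, strand release read as fluorescence at 594 nm, inhibition of TDG activity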
Description: Inhibition of TDG by quantifying inhibition of TDG-mediated cleavage and dissociation of quenched duplex DNA oligonucleotides, measured as fluorescence at 594 nm. To generate a functional strand incision and increase turn-over this assay is coupled to APE1.

[6] = target: T2, Single-strand selective monofunctional uracil DNA glycosylase (Homo sapiens) (UniProt Q53HV7); conditions: Hit No;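 also: enzymatic SMUG1 assay coupled with APE1, reading fluorescence at 594 nm released when a quenched double-stranded DNA oligonucleotide substrate is cleaved and separated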
T2 sequence (whole entry): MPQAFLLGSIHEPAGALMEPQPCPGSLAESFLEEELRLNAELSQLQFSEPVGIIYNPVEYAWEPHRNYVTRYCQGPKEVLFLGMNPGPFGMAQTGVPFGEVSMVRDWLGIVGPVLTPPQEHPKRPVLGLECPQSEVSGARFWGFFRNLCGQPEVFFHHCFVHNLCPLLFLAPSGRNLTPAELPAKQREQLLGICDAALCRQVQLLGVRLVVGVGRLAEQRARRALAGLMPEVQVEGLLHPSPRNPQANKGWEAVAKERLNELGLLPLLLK
Description: Inhibition of SMUG1 by quantifying inhibition of SMUG1-mediated cleavage and dissociation of quenched duplex DNA oligonucleotides, measured as fluorescence at 594 nm. To generate a functional strand incision and increase turn-over this assay is coupled to APE1.

[7] = target: Uracil-DNA glycosylase (Homo sapiens) (UniProt P13051); conditions: Hit No;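 also: UNG excision on a quenched double-stranded DNA oligo probe, with APE1 added for strand incision and turnover, read as fluorescence at 594 nm as strands separate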
Description: Inhibition of UNG by quantifying inhibition of UNG-mediated cleavage and dissociation of quenched duplex DNA oligonucleotides, measured as fluorescence at 594 nm. To generate a functional strand incision and increase turn-over this assay is coupled to APE1.

[8] = target: T3, Endonuclease III-like protein 1 (Homo sapiens) (UniProt P78549); conditions: Hit No;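 also: enzyme assay tracking NTHL1 cutting and release of a quenched double-stranded DNA oligo substrate, read as fluorescence at 594 nm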
T3 sequence (whole entry): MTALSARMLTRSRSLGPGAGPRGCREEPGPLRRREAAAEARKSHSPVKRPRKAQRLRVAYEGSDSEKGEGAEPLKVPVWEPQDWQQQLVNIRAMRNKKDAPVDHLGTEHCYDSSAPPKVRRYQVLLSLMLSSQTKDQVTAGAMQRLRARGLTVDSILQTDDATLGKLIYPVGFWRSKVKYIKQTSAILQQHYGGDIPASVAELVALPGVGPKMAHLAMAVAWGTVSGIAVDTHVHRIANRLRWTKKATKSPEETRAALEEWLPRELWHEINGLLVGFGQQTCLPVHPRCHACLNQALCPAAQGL
Description: Inhibition of NTHL1 by quantifying inhibition of NTHL1-mediated cleavage and dissociation of quenched duplex DNA oligonucleotides, measured as fluorescence at 594 nm.

[9] = target: T4, Adenine DNA glycosylase (Homo sapiens) (UniProt Q9UIF7); conditions: Hit No;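 also: human MUTYH activity read as 594 nm fluorescence from cleavage and release of a quenched DNA duplex, coupled with APE1 for strand incision, lower signal meaning inhibition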
T4 sequence (whole entry): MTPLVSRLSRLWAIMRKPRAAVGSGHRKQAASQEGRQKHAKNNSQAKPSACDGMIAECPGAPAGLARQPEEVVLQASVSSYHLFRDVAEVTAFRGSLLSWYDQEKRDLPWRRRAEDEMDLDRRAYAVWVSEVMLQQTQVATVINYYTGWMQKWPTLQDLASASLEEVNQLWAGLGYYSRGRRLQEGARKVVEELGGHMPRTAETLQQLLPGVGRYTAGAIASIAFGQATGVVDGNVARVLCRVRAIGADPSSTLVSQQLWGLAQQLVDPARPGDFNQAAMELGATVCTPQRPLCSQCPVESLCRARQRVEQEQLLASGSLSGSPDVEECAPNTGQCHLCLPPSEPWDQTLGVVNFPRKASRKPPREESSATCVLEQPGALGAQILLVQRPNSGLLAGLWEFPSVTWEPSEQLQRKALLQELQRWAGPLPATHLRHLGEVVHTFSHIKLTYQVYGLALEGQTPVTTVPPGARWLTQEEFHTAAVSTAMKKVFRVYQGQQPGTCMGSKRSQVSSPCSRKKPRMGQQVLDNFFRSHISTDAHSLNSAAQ
Description: Inhibition of MUTYH by quantifying inhibition of MUTYH-mediated cleavage and dissociation of quenched duplex DNA oligonucleotides, measured as fluorescence at 594 nm. To generate a functional strand incision and increase turn-over this assay is coupled to APE1.

[10] = target: Methyl-CpG-binding domain protein 4 (Homo sapiens) (UniProt O95243); conditions: Hit No;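 also: MBD4 activity read as fluorescence at 594 nm from cleavage and release of a quenched duplex DNA oligonucleotide, with APE1 coupled to incise the strand and raise turnover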
Description: Inhibition of MBD4 by quantifying inhibition of MBD4-mediated cleavage and dissociation of quenched duplex DNA oligonucleotides, measured as fluorescence at 594 nm. To generate a functional strand incision and increase turn-over this assay is coupled to APE1.

[11] = Compound Concentration 10.0 uM, Hit No
[12] = Compound Concentration 1.0 uM, Hit No

Methyl-CpG-binding domain protein 4 (Homo sapiens), sequence (O95243 whole entry, the tested form may be a part): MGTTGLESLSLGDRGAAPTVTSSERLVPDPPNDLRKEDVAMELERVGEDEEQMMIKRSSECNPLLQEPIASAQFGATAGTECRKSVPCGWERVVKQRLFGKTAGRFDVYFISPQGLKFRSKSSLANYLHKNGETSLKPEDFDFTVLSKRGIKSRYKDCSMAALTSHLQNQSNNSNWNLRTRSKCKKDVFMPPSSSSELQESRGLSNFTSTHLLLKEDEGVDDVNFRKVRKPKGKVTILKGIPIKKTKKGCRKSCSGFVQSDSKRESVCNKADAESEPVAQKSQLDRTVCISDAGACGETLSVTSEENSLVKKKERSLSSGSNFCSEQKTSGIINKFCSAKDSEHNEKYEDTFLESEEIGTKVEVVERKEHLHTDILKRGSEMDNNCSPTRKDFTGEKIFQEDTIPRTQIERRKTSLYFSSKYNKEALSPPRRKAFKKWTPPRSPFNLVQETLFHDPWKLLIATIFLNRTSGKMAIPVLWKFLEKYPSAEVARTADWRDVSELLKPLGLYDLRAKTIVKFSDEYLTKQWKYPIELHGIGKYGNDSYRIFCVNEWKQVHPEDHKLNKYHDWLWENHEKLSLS
Endonuclease 8-like 1 (Homo sapiens), sequence (Q96FI4 whole entry): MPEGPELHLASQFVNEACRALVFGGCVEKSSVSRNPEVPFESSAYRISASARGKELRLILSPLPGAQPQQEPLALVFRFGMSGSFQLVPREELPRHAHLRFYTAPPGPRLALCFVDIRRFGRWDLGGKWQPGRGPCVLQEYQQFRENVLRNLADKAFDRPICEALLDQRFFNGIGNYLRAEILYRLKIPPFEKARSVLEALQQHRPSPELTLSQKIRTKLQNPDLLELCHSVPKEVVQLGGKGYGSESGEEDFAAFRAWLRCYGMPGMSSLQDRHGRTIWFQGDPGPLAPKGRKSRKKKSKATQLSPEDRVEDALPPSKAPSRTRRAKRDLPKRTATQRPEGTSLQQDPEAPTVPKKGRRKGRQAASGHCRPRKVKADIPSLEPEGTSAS
DNA-3-methyladenine glycosylase (Homo sapiens), sequence (P29372 whole entry): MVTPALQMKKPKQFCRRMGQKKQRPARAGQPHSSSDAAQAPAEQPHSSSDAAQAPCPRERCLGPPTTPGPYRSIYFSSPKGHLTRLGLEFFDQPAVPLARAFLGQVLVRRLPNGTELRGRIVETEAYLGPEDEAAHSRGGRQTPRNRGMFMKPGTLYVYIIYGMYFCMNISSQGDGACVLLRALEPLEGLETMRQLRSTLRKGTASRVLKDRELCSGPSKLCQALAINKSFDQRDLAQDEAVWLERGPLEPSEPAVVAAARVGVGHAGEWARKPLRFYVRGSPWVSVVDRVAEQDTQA
Uracil-DNA glycosylase (Homo sapiens), sequence (P13051 whole entry): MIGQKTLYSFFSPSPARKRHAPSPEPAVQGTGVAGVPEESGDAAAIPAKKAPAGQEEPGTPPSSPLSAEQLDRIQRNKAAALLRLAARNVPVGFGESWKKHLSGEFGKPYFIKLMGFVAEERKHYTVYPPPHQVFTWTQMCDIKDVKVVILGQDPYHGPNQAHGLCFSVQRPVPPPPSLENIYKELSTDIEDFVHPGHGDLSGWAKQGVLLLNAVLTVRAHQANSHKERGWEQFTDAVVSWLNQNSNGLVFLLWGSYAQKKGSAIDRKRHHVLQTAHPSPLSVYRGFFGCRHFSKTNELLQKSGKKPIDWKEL
G/T mismatch-specific thymine DNA glycosylase (Homo sapiens), sequence (Q13569 whole entry): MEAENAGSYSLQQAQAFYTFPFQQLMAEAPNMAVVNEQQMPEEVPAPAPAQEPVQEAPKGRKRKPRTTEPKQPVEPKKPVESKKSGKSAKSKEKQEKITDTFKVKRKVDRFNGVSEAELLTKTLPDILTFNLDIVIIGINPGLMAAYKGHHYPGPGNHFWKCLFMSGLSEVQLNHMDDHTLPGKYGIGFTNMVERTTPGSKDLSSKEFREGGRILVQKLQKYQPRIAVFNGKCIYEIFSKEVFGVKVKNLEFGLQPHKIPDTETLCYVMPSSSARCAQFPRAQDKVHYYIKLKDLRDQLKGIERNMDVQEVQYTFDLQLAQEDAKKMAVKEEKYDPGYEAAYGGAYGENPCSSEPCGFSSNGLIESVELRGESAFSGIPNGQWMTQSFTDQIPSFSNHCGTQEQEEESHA
N-glycosylase/DNA lyase (Homo sapiens), sequence (O15527 whole entry): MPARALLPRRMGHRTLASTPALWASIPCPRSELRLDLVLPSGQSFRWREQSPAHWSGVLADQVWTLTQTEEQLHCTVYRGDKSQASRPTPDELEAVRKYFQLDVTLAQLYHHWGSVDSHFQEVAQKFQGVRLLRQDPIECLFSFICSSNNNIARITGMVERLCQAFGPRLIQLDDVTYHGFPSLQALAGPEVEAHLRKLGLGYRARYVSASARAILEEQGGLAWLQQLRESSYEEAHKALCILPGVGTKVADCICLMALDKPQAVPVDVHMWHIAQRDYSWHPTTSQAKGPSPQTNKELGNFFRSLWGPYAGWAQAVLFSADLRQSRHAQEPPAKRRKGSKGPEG

| Compound | inhibition ([1]; Compound Concentration 10.0 uM) | inhibition ([2]; Compound Concentration 10.0 uM) | inhibition [3, 11] | inhibition [4] | inhibition ([5]; Compound Concentration 10.0 uM) | inhibition ([6]; Compound Concentration 10.0 uM) | inhibition ([7]; Compound Concentration 10.0 uM) | inhibition ([8]; Compound Concentration 1.0 uM) | inhibition ([7]; Compound Concentration 1.0 uM) | inhibition ([6]; Compound Concentration 1.0 uM) | inhibition ([1]; Compound Concentration 1.0 uM) | inhibition ([2]; Compound Concentration 1.0 uM) | inhibition [3, 12] | inhibition ([5]; Compound Concentration 1.0 uM) | inhibition ([9]; Compound Concentration 1.0 uM) | inhibition ([10]; Compound Concentration 1.0 uM) | inhibition ([8]; Compound Concentration 10.0 uM) | inhibition ([3]; Compound Concentration 10.0 uM, Hit Yes) | inhibition ([9]; Compound Concentration 10.0 uM) | inhibition ([10]; Compound Concentration 10.0 uM) |
| --- | --- | --- | --- | --- | --- | --- | --- | --- | --- | --- | --- | --- | --- | --- | --- | --- | --- | --- | --- | --- |
| O=c1ccn([C@@H]2O[C@H](COP(=O)(O)OP(=O)(O)OP(=O)(O)O)[C@@H](O)[C@H]2O)c(=O)[nH]1 | -1.39% | -9.97% | -2.46% | -2.4% | -4.53% |  |  |  |  |  |  |  |  |  |  |  |  |  |  |  |
| Cc1csc2c(N[C@@H](C)CN3CCN(S(=O)(=O)c4ccc(Cl)c(Cl)c4)CC3)ncnc12 | 0.834% | -5.22% | -1.28% | -1.59% | 16.4% | -6.62% |  |  |  |  |  |  |  |  |  |  |  |  |  |  |
| COc1ccncc1C(=O)NC(=O)Nc1ccc(-c2ccccc2)c(C(F)(F)F)c1 |  | -8.22% | -8.25% | -3.95% | -6.05% |  |  |  |  |  |  |  |  |  |  |  |  |  |  |  |
| COC(=O)[C@H]1[C@H]2C[C@H]3c4[nH]c5ccccc5c4CCN3C[C@H]2CC[C@@H]1O | 2.02% | 9.75% | -6.57% | 14.5% | 5.99% |  |  |  |  |  |  |  |  |  |  |  |  |  |  |  |
| CC(C)c1cc(-c2ccc(F)c3ccccc23)nc(N)n1 | 5.58% | 7.25% | 2.18% | -4.83% | -7.89% | -9.82% |  |  |  |  |  |  |  |  |  |  |  |  |  |  |
| Cn1cc(C(=O)OCC2CCN(CCNS(C)(=O)=O)CC2)c2ccccc21 | 1.28% | 2.51% |  | 11.2% | -0.888% |  |  |  |  |  |  |  |  |  |  |  |  |  |  |  |
| CSc1ccccc1N1CCN(CCCCCC(=O)NC2CCCc3ccccc32)CC1 (centres undefined) | 7.57% |  | -6.45% | 6.14% | 1.58% | -2.78% | -4.03% |  |  |  |  |  |  |  |  |  |  |  |  |  |
| CC(C)Oc1ccc(Cc2ccc(NC3=NCCN3)cc2)cc1 | 0.454% | -6.46% |  | -3.29% | 0.0736% | -1.14% | -3.75% |  |  |  |  |  |  |  |  |  |  |  |  |  |
| Cc1cc(Nc2nccc(C)n2)cc(-c2cnc([C@@]3(O)CC[C@H](C(=O)O)C(C)(C)C3)s2)c1 |  |  |  |  |  |  |  | -4.56% | 2.21% | 13.6% | -7.58% | -5.61% | 9.85% | 40.8% | 3.53% | 25.6% |  |  |  |  |
| O=C(O)Cc1cccc(OCCCN(Cc2cccc(C(F)(F)F)c2Cl)CC(c2ccccc2)c2ccccc2)c1 | -4.83% | 5.89% |  |  | 54% | 33.2% | 8.18% |  |  |  |  |  |  |  |  |  | 2% | 106% | 2.57% | 61.5% |
| O=C(O)c1ccc2c(c1)nc(Nc1cccc(Cl)c1)c1ccncc12 | -4.62% | -9.73% | 6.06% |  | 97.5% | 17.2% | -6.1% |  |  |  |  |  |  |  |  |  | 2.18% |  | 11.4% | -3.96% |
| CC(=O)Nc1c(F)cc(C(=O)N[C@H]2CC[C@H](O)CC2)cc1O[C@@H](C)c1ccccc1 | 2.28% | -0.489% | 12.6% |  | 69.8% | 12.7% | 5.95% |  |  |  |  |  |  |  |  |  | 5.29% |  | 6.45% | 61.8% |
| C[C@@H]1CN(c2cc(-c3nn(C)c4ccc(OC5(C)CC5)cc34)ncn2)C[C@H](C)O1 | 4.71% | 1.04% |  |  | 63% | 15.6% | 4.62% |  | -5.93% | 3.32% | -5.67% | -5.15% | 11.8% | 34.4% | -9.65% | 101% | -7.86% |  | -0.542% | 67.5% |
| CCC(=O)N1CCN(c2ccc(-n3c(=O)ccc4cnc5ccc(-c6cnc7ccccc7c6)cc5c43)cc2C(F)(F)F)CC1 |  |  |  |  |  |  |  | 6.36% | 3.95% | 24.3% | -7.39% | -7.57% | 10.6% | 59% | 15.3% | -7.49% |  |  |  |  |
| CCCCN1CCC(COC(=O)c2cc(Cl)c(N)c3c2OCCO3)CC1 | 5.28% | 2.51% | -1.24% |  | 14.3% | 8.49% | -2.45% |  |  |  |  |  |  |  |  |  | -3.21% |  | -7.02% | 4.39% |
| CCC(=N\O)/C(C)=C/c1ccc(F)c(C)c1 | -2.41% | 0.276% | 16.2% |  | 41.4% | 22.6% | 3.87% |  |  |  |  |  |  |  |  |  | -5.23% |  | -0.87% | 64.7% |
| N#CC1(c2ccccn2)CCN(Cc2cc(C(=O)N3CCCC3)c(=O)n3ccccc23)CC1 | -0.745% | 4.87% | 13.7% |  | 39.8% | 16.3% | 2.35% |  |  |  |  |  |  |  |  |  | 2% |  | -9.61% | 68.6% |
| C=C1/C(=C\C=C2/CCC[C@]3(C)[C@@H]([C@H](C)CCCC(C)(C)O)CC[C@@H]23)C[C@@H](O)C[C@@H]1O | -6.8% | -1.25% | 10.5% |  | 75.3% | 0.349% | -0.617% |  |  |  |  |  |  |  |  |  | -8.52% |  | -4.04% | 57% |

From ChEMBL document CHEMBL5665443, “Enzyme Inhibitor Single Concentration assay results for EUbOPEN Chemogenomics Library” (2024)
